Measured values taken from patent publication EP0663912B1, “HETEROCYCLIC ETHER COMPOUNDS THAT ENHANCE COGNITIVE FUNCTION” (ABBOTT LABORATORIES, priority 1992, dated 1994).
pEC50: −log10 of the molar value. Values joined by “and” are separate entries in the source; they are usually repeats but may differ in a detail not shown here. Equal entries are not always repeated. Structures can show the parent of a compound that is named as a salt.

Assays:
[1] = test system: cholinergic channel receptors in PC12 cells; test: Whole-cell patch-clamp measurement of cholinergic channel activation in NGF-differentiated PC12 cells; type: cell-based, rat; details: for CURRENT AT PEAK: holding potential -60 mV
Description: B. Protocols for the Determination of Cholinergic Channel Activation in PC12 Cells.
The cholinergic channel activator properties of Example 9 were investigated in PC12 cells using the whole-cell patch-clamp approach to measure current flow through ligand-gated membrane channels. […]
PC12 cells are a rat pheochromocytoma cell line that, upon treatment with nerve growth factor (NGF) differentiate into a neuronal phenotype and express nicotinic cholinergic channels (Greene & Tischier, Proceedings of the National Academy of Sciences of the United States of America, 73: 2424-2428, 1976; Dichter et al., Nature, 268: 501-504, 1977). Prominent neuronal cholinergic channel subunits in these cells are α3, α5, β2, β3 and β4 (Rogers et al., Journal of Neuroscience, 12: 4611-4623, 1992).
PC12 cells were obtained initially from ATCC and, using standard techniques were maintained in DMEM containing 10% heat-inactivated fetal calf serum and 5% heat-inactivated horse serum (37°C, 95% 02 & 5% CO2). Electrophysiologic recordings were obtained from differentiated (neurite-bearing) cells after 4-7 days exposure to NGF. For this purpose, the undifferentiated cells were first plated onto polylysine-coated 12 mm round glass coverslips in 60x15 mm plastic Petri dishes. After 20 minutes, differentiating medium was added (DMEM containing 100 ng/ml nerve growth factor, 5% heat-inactivated fetal calf serum and 2.5% heat-inactivated horse serum) and the cells were refed with this medium every 3 days.
The whole-cell patch-clamp technique was used to record voltage-activated currents and ligand-gated currents activated by substances applied through the U-tube flow-reversal technique (Fenwick et al., The Journal of Physiology (London) 331: 577-597, 1982). A coverslip bearing the cells was transferred from culture dish to the recording chamber (350 µL volume) and superfused (1 ml/min) at room temperature with an extracellular solution containing 150 mM NaCl, 2.8 mM KCI, 2.0 mM CaCl2, 1.0 mM MgCl2, ≥ 10 mM dextrose and 10 mM Na-HEPES buffer (7.3 pH, 325 mOsm). The intracellular (recording pipette) solution consisted of 140 mM KCl, 1.0 mM CaCl2, 2.0 mM MgCl2, 11 mM K-EGTA, and 10 mM K-HEPES buffer (7.3 pH, 315 mOsm). Osmolarities were adjusted using dextrose such that the extracellular solution was 10 mOsm hypertonic compared to the intracellular solution. Voltage-gated inward (sodium) and outward (potassium) currents were monitored throughout the experiment to determine establishment and maintenance of the whole-cell recording configuration.
The ligand was applied at least twice at each concentration in every cell, and applications were separated by ≥ 3 minutes to allow for recovery from desensitization, washout of the bathing solution, and re-equilibration of the U-tube. Antagonists were applied to the bathing solution through superfusion for 5-10 minutes prior to application of both antagonist and agonist through the U-tube flow reversal.

[2] = Inhibitory (passive) avoidance (IA) test of learning/memory; type: in vivo
Description: The inhibitory (or sometimes called passive) avoidance (IA) test is a well accepted animal model of learning/memory used to assess the activity of novel cholinergic agonists to enhance cognitive function (Wanibuchi et al., Eur. J. Pharmacol., 1990, 187:479). Animals are placed in the illuminated (12 X 14 X 11 cm) portion of a two-chambered box, from which they enter through a guillotine door to the larger (24 X 13.5 X 12 cm) dark compartment of the box. Entry to the dark compartment is accompanied by a mild (0.5 mA), brief (2 seconds) footshock. Initial latencies to cross are recorded, with an imposed 60 second ceiling. Following a 72 hour retention interval, animals are returned to the illuminated chamber, and latency to return to the dark compartment is again recorded, with a ceiling of 180 seconds. No footshock is administered on the test day.
Twelve animals were used in each group.

[3] = test system: CD1 mice; test: Mouse elevated plus-maze (EPM) test of anxiolytic activity; type: in vivo
Description: The mouse elevated plus-maze is a conflict test that probes anxiolytic activity of test compounds (Lister, Psychopharmacology, 1987, 92:180). It is based on the fact that exposure of mice to an elevated open arm leads to an avoidance response considerably stronger than that evoked by exposure to an enclosed arm.
The apparatus required to perform this test is made of plywood and consists of two open arms (17 X 8 cm) and two enclosed arms (17 X 8 X 15 cm) extending from a central platform (8 X 8 cm). It is mounted on a plywood base rising 39 cm above the floor. Mice are released on the central platform and the time spent in the open and enclosed arms is recorded during a 5 minute test period. The test compounds were administered to CD1 mice 15 minutes before the test. […]

[4] = level of improvement in retention of the avoidance response, dose or dose range in brackets, IP 15 minutes before training, 12 animals per group
[5] = level of increase in time spent in the open arms, dose or dose range in brackets, given 15 minutes before 5 minute test

Row | Structure (SMILES) | IA [2, 4] | EPM [3, 5] | further results
1 | CN1CCCC1c1cccnc1 (single isomer, unassigned; (-)) [(-)-nicotine, reference compound] | – | – | CURRENT AT PEAK ([1]; 50 µM (-)-nicotine, individual PC12 cells A-E): 81 pA and 108 pA and 163 pA and 539 pA; CURRENT AT PEAK, MEAN±S.E.M. ([1]; 50 µM (-)-nicotine, n=5 PC12 cells): 235 ± 84 pA; pEC50 ([1]; PC12 cells current response): 4.28; IA ([2]; in vivo, ip): significant [0.19-0.62]; EPM ([3]; mouse, in vivo): significant [0.62-1.9]; time spent by the mice in the open arms of the maze ([3]; mouse, in vivo): significant increase
2 | CN1CCC[C@H]1COc1cnccn1.O=C(O)/C=C/C(=O)O [Example 3, 2-(1-Methyl-2-(S)-pyrrolidinylmethyloxy)pyrazine fumarate] | NE [0.062-1.9] | NE [0.019-0.62] | –
3 | CN1CCC[C@H]1COc1cccnc1.O=C(O)/C=C/C(=O)O [Example 4, 3-(1-Methyl-2-(S)-pyrrolidinylmethyloxy)pyridine fumarate] | significant [0.019] | NE [0.019-0.62] | –
4 | Cl.c1cnc(OC[C@@H]2CCN2)cn1 [Example 7, 2-(2-(S)-azetidinylmethyloxy)pyrazine hydrochloride] | marginal | NE [0.019-0.62] | –
5 | CN1CC[C@H]1COc1cnccn1.Cl [Example 8, 2-(1-Methyl-2-(S)-azetidinylmethyloxy)pyrazine hydrochloride] | NE [0.062- 1.9] | NE [0.062- 1.9] | –
6 | Cl.c1cncc(OC[C@@H]2CCN2)c1 [Example 9, 3-(2-(S)-azetidinylmethyloxy)pyridine hydrochloride] | NE [0.0019- 0.062] | significant [0.0062] | CURRENT AT PEAK ([1]; 10 µM Example 9, individual PC12 cells A-E, hydrochloride): 165 pA and 173 pA and 484 pA and 283 pA and 702 pA; CURRENT AT PEAK, MEAN±S.E.M. ([1]; 10 µM Example 9, n=5 PC12 cells): 361 ±103 pA; RESPONSE RATIO Example 9 /(-)-NICOTINE ([1]; 10 µM Example 9 versus 50 µM (-)-nicotine in the same cell, individual PC12 cells A-E, hydrochloride, 10 µM): 203% and 161% and 171% and 173% and 130%; RESPONSE RATIO Example 9 /(-)-NICOTINE, MEAN±S.E.M. ([1]; 10 µM Example 9 versus 50 µM (-)-nicotine in the same cell, n=5): 168 ± 12%
7 | CN1CC[C@H]1COc1cccnc1.Cl [Example 10, 3-(1-Methyl-2-(S)-azetidinylmethyloxy)pyridine hydrochloride] | marginal [0.62] | significant [0.19] | –
8 | c1cncc(OC[C@@H]2CCCN2)c1 [Example 14, 3-(2-(S)-pyrrolidinylmethyloxy)pyridine furmarate] | NE [0.019- 0.62] | marginal [0.019] | –
9 | Cl.Cl.Clc1cncc(OC[C@@H]2CCCN2)c1 [Example 15, 5-Chloro-3-(2-(S)-pyrrolidinylmethyloxy)pyridine dihydrochloride] | significantly inhibits [0.062] | significant [0.062- 0.19] | –
10 | CN1CCC[C@H]1COc1cncc(Cl)c1.Cl.Cl [Example 16, 5-Chloro-3-(1-methyl-2-(S)-pyrrolidinylmethyloxy)pyridine dihydrochloride] | significant [0.019] | NE [0.019- 0.62] | –
11 | Cc1ncccc1OC[C@@H]1CCCN1.Cl.Cl [Example 17, 2-Methyl-3-(2-(S)-pyrrolidinylmethyloxy)pyridine dihydrochloride] | significant [0.062, 0.62, 1.9] | significant [1.9] | –
12 | Cc1ccc(OC[C@@H]2CCCN2)cn1.Cl.Cl [Example 18, 6-Methyl-3-(2-(S)-pyrrolidinylmethyloxy)pyridine dihydrochloride] | NE [0.019- 0.62] | significant [0.062- 0.19] | –
13 | Cc1ccc(OC[C@@H]2CCCN2C)cn1.Cl.Cl [Example 19, 6-Methyl-3-(1-methyl-2-(S)-pyrrolidinylmethyloxy)pyridine dihydrochloride] | NE [0.019- 0.62] | NE [0.019-62] | –
14 | CC1CC[C@@H](COc2cccnc2)N1C.Cl.Cl (stereo partly drawn) [Example 22, 3-(1-Methyl-5-methyl-2-(S)-pyrrolidinylmethyloxy)pyridine dihydrochloride] | NE [0.062- 1.9] | NE [0.062-1.9] | –
15 | Cc1ncccc1OC[C@@H]1CCN1.Cl.Cl [Example 29, 2-Methyl-3-(2-(S)-azetidinylmethyloxy)pyridine dihydrochloride] | significantly Inhibits [19] | significant [0.62, 1.9] | –
16 | c1csc(OCC23CCCN2CCC3)n1 [Example 34, 2-(1-(8-pyrrolizidinyl)methyloxy)thiazole hydrochloride salt] | NE [0.062-1.9] | marginal [0.62] | –
17 | CNC1(C)C2CCC(C2)C1(C)C (centres unmarked) [Mecamylamine, reference compound] | – | – | inhibition of the responses to Example 9 ([1]; Mecamylamine 10 µM against Example 9 10 µM, n=4): ≥ 80%
